Experimental data published in PMC7357788, “Overlapping functions and protein-protein interactions of LRR-extensins in Arabidopsis” (PLoS Genetics, 2020).
Entries after “also recorded” stand apart in the source; their conditions may differ.

How the values were obtained:
LRX4 [1] = test: Yeast-two-hybrid RALF1-LRX4; format: binding, Arabidopsis thaliana; settings: Y2H, yeast strain PJ69-4A, growth on -Trp, Leu, His, Ade drop-out medium
Source text: (§1) The BD-LRX4 and AD-FER^ECD constructs for the Yeast-two-hybrid experiment were cloned as previously described, where NtermFER equals AD-FER^ECD and LRR4 equals BD-LRX4. For the BD-LRX1/2/3/5 constructs, the coding sequence of the LRR domain of the LRXs was amplified using primers (S3 Table) to introduce a BamHI and a XhoI site at the 5’ and 3’ end of the PCR fragments, respectively. These were cloned into pJET1.2 (Thermo Scientific) and correct clones were cut with BamHI and XhoI and ligated into pGBKT7 cut with BamHI and SalI. The AD-RALF1 construct was cloned into pJET1.2 (Thermo Scientific) by amplification of the coding sequence with the primers y2h_RALF1_F and y2h_RALF1_R. A correct clone was cut with EcoRI and XmaI and ligated into pGADT7 cut with EcoRI and XmaI.
(§2) Transformation of the yeast strain PJ69-4A [63] was done following standard procedures and quadruple drop-out medium lacking Leu, Trp, His, and Ade were used to screen for positive interactions after 4 days incubation at 30°C. Three different colonies containing both vectors were mixed and plated in triplicates on quadruple drop-out medium.
(§3) Supplementary file pgen.1008847.s002.pdf: S2 Fig Interaction of LRX1 and RALF1 in yeast. The yeast strain PJ69-4A was transformed with pGADT7-RALF1 and pGBKT7-LRR1 or pGBKT7-LRR4, and with either of the constructs with empty plasmids for the negative controls. […]

[2] = system: LRX1^ΔE-FER^ECD interaction; test: Co-IP: effect of added RALF1 on LRX1^ΔE-FER^ECD interaction; format: binding, Arabidopsis thaliana; settings: synthetic RALF1 peptide 50, 100, 200, 1000 nM added to extracts
Source text: In a next step, the dynamics of LRX-RALF1-FER interaction was investigated with a focus on LRX1. To this end, extracts used to show Co-IP of LRX1^ΔE and FER^ECD were supplemented with increasing concentrations of RALF1 peptide.
(§4) For pulldown and Co-IP analysis of the different constructs indicated in the experiments DNA was infiltrated into Nicotiana benthamiana leaves, and after 48 hrs, the leaves were excised and ground in liquid nitrogen as described in [62]. Two hundred mg of tissue powder was re-suspended in 500 μL extraction buffer [200 mM Tris-HCl (pH 7.5), 150 mM NaCl, 1 mM PMSF, protease inhibitor and 0.5% Triton X-100]. The suspension was incubated on ice for 30 minutes and then centrifuged at 11,000 rpm for 20 minutes at 4°C. The supernatant (200 μL) was then incubated with 10 μL anti-HA (Thermo Scientific, 88837), or anti-FLAG magnetic beads overnight at 4°C on a rotating shaker. If RALF1 peptide was added, the peptide was diluted in such way that for every sample 1μL of peptide was added to the protein extracts. After incubation, the beads were washed five times with the wash buffer (extraction buffer containing 0.05% Triton X-100) and boiled in SDS-PAGE loading buffer for 15 minutes at 75°C. […]

Arabidopsis seedlings = test: Root growth inhibition assay; format: in vivo, Arabidopsis thaliana; settings: five days in liquid medium, 1 μM RALF1, student T-test, n = 6, p<0.001 vs control
Source text: Supplementary file pgen.1008847.s003.pdf: S3 Fig Synthetic RALF1 peptide activity. […] Error bars represent standard error of the mean. (PDF) Click here for additional data file.

LRX3 (LRX3^ΔE-FLAG) = test: BLITZ (biolayer interferometry) RALF1-LRX3 binding; set-up: species or system Arabidopsis thaliana; settings: compared with LRX1, LRX4, and LRX5
Method: (§5) The kinetics of the interaction of LRX proteins with RALF1 were tested with Biolayer Interferometry (BLITZ). The LRX^ΔE-FLAG proteins of LRX1, LRX3, LRX4, and LRX5 used for this experiment were expressed transiently in tobacco. […] For RALF1, in vitro synthesized peptide was used. […] While the LRX^ΔE-FLAG had to be soluble in order to get purified prior to application on the sensor (for details, see Materials and Methods), it cannot be completely ruled out that LRX3^ΔE-FLAG has a reduced solubility in this experiment that would provide an alternative explanation for the observed high Kd.
(§6) The BLITZ experiments were performed as previously described. The LRR^ΔE–FLAG versions of the different LRXs were expressed using the 35S promoter in N. benthamiana, presence of proteins was checked by immunoblotting, and proteins were immune-precipitated as described above. […] Protein concentration was determined by Qubit measurement (Quant-iTTM Protein Assay kit, Invitrogen). […] Different RALF synthetic peptide (PHTD peptides) concentrations (200 μM, 150 μM, 100 μM, 50 μM, 20 μM, 15 μM, 10 μM, 4 μM, 2 μM and 0.2 μM) were added to quantify the protein interaction.

LRX1^ΔE = test: Co-IP of LRX1^ΔE-HA with RALF1-FLAG; format: binding, Arabidopsis thaliana; settings: Co-IP and immunoblotting, transient expression in N. benthamiana
Method: Here, we tested binding of RALF1 to LRX1.
as §4, with “75°C. The immunoprecipitates were then run on an SDS-PAGE gel and transferred to nitrocellulose membrane to perform immunoblotting using the following antibodies: anti-FLAG M2 (Sigma-Aldrich, F3165), anti-GFP (Biolegend, 902601), anti-HA-HRP 3F10 (Roche, 12 013 819 001) and anti-mouse-HRP (Sigma Aldrich, A 4416).” for “75°C.”

LRX4 [3] = settings: ref [15],[41]; cited from earlier work
LRX1 (LRX1^ΔE-FLAG) = test: BLITZ (biolayer interferometry) RALF1-LRX1 binding; set-up: species or system Arabidopsis thaliana; settings: purified LRX^ΔE expressed in N. benthamiana, synthetic RALF1 peptide, association 120 s, dissociation 120 s
Method: as §5, §6
(§7) Supplementary file pgen.1008847.s004.pdf: S4 Fig BLITZ output data. […] Association/dissociation or RALF1 depends on the concentration of applied RALF1, based on which the Kd is calculated. […]

LRX4 (LRX4^ΔE-FLAG) = test: BLITZ (biolayer interferometry) RALF1-LRX4 binding; set-up: species or system Arabidopsis thaliana; settings: purified LRX^ΔE expressed in N. benthamiana, synthetic RALF1 peptide, association 120 s, dissociation 120 s
Method: as §5, §6, §7

LRX3, LRX4, and LRX5 = settings: vegetative tissues; ref [40],[41]; cited from earlier work
Source text: LRX proteins were recently identified as high-affinity binding sites for RALF peptides, with the binding spectrum differing among the LRXs. […] Whether and how the binding of RALFs and FER to LRXs influences the interaction of these proteins remains to be investigated. It is also unknown to what extent the different LRXs are functionally similar and whether they share FER as a common interaction ...

FER = settings: ref [15],[41]; cited from earlier work
LRX1 = test: Yeast-two-hybrid RALF1-LRX1; format: binding, Arabidopsis thaliana; settings: Y2H, yeast strain PJ69-4A, growth on -Trp, Leu, His, Ade drop-out medium
Source text: as §1, §2, §3

LRX5 (LRX5^ΔE-FLAG) = test: BLITZ (biolayer interferometry) RALF1-LRX5 binding; set-up: species or system Arabidopsis thaliana; settings: purified LRX^ΔE expressed in N. benthamiana, synthetic RALF1 peptide, association 120 s, dissociation 120 s
Method: as §5, §6

Chain of LRX4 (LRX4^ΔE-FLAG) (Q9LHF1 26-403 limits assumed, stated change not applied): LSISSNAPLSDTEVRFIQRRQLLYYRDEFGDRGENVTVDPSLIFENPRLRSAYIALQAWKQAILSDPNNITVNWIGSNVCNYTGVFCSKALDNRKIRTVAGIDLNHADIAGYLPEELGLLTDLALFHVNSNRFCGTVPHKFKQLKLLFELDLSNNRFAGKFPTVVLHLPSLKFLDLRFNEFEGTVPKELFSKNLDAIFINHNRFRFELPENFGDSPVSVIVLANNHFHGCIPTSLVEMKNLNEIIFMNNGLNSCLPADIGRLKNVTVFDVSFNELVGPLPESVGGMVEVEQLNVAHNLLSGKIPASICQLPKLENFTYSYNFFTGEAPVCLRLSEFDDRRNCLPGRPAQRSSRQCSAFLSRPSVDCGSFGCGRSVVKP
Chain of LRX1 (LRX1^ΔE-FLAG) (O65375 27-381 limits assumed, stated change not applied): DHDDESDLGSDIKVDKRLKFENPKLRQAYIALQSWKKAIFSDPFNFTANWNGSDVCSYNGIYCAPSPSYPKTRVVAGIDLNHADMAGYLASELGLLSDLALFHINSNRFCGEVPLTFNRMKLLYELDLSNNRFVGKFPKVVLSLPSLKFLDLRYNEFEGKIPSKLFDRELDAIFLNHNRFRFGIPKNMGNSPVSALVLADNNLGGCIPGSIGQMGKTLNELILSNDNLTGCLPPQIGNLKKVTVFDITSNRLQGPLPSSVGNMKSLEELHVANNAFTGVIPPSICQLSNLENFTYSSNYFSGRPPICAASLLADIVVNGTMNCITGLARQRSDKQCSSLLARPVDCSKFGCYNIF
Chain of LRX5 (LRX5^ΔE-FLAG) (Q9SN46 32-405 limits assumed, stated change not applied): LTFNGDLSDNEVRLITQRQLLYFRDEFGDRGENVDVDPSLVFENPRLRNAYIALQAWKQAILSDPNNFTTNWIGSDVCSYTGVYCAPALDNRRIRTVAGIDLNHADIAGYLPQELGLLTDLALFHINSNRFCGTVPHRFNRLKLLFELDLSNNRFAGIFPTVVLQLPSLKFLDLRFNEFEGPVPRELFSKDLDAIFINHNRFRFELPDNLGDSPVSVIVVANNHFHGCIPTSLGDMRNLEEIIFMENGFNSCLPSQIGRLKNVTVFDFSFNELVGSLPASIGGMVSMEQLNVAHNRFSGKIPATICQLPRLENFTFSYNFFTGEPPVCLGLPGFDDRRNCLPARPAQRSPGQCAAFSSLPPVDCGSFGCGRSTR
Chain of LRX3 (LRX3^ΔE-FLAG) (Q9T0K5 21-388 limits assumed, stated change not applied): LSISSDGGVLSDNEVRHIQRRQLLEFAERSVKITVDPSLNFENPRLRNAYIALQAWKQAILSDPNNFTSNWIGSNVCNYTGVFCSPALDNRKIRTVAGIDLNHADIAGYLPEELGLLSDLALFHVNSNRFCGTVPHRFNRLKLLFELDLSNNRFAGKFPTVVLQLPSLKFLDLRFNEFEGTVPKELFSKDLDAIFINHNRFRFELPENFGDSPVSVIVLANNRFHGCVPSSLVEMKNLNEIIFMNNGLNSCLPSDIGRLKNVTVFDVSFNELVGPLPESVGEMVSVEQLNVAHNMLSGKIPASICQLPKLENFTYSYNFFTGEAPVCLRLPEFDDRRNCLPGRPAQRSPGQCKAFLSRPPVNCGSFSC

For “RALF1: in vitro synthesized RALF1 peptide hormone (PHTD peptides); gene At1G02900; expressed as AD-RALF1 in yeast-two-hybrid (ATTKYISYQSLKRNSVPCSRRGASYYNCQNGAQANPYSRGCSKIARCRS; UniProt Q9SRY3 72-120, looked up)”, the “interaction with LRX4” value (LRX4 [1]) was “indicates interaction of the LRX proteins with RALF1”, the “effect on LRX1^ΔE-FER^ECD interaction” value [2] was “does not influence the interaction of LRX1^ΔE with FER^ECD; also recorded: did not affect the interaction between LRX1^ΔE and FER^ECD” and the root growth inhibition (Arabidopsis seedlings) was “effectively inhibited root growth of Arabidopsis seedlings; also recorded: significantly inhibited root growth”. For the same substance, the “affinity of LRX3 for RALF1, in words” value (LRX3 (LRX3^ΔE-FLAG)) was “much lower affinity”, the “interaction with LRX1^ΔE” value (LRX1^ΔE) was “shows binding to RALF1” and the “binding to LRX4” value (LRX4 [3]) was “has been shown to bind RALF1”. For the same substance, the Kd (LRX1 (LRX1^ΔE-FLAG)) was 4.5 nM, the Kd (LRX4 (LRX4^ΔE-FLAG)) was 5.5 nM and the “binding to LRX3, LRX4, and LRX5” value (LRX3, LRX4, and LRX5) was “reported to bind”. The “binding to FER” value (FER) was “also interacts with FER”, the “interaction with LRX1” value (LRX1) was “yeast cells grew effectively in the presence of the two proteins; also recorded: indicates interaction of the LRX proteins with RALF1” and the Kd (LRX5 (LRX5^ΔE-FLAG)) was 3.5 nM.
